IC50 data for 36 compounds are collected here from ChEMBL document CHEMBL2406972, “Synthesis and antitumor activities of novel dibenzo[b,d]furan-imidazole hybrid compounds” (Eur J Med Chem, 2013).

Some results are limits rather than exact numbers.

Holding throughout (type): functional, cell-based
The subject of one test is MCF7. The test is described as follows: Cytotoxicity against human MCF7 cells after 48 hrs by MTT assay. The note with it: MCF7, 48 h. Background: Tetrazolium assays rely on reduction of a dye to a coloured formazan, in cell work by metabolically active cells.
Another test has as its system HL-60. The test is described as follows: Cytotoxicity against human HL60 cells after 48 hrs by MTT assay. The conditions noted are these: HL-60, 48 h.
The next test concerns SW480. The test is described as follows: Cytotoxicity against human SW480 cells after 48 hrs by MTT assay. The conditions noted are these: SW480, 48 h.
The test system of a further test is SMMC-7721. Nature of the test: Cytotoxicity against human SMMC7721 cells after 48 hrs by MTT assay. The note with it: SMMC-7721, 48 h.
A further test concerns A549. The test is described as follows: Cytotoxicity against human A549 cells after 48 hrs by MTT assay. The note with it: A549, 48 h.

As for `CC(c1ccc2oc3ccccc3c2c1)n1c[n+](CC(=O)c2ccc(Br)cc2)c2ccccc21` (stereo not given), the IC50 (usually the concentration at which inhibition is half-maximal) with MCF7 amounted to 3.08 µM; with HL-60, 0.66 µM; in the test with SW480, 3.18 µM; with SMMC-7721, 2.62 µM; in the test on A549, 3.54 µM.
Regarding `Cc1n(C(C)c2ccc3oc4ccccc4c3c2)cc[n+]1CC(=O)c1ccc2ccccc2c1` (stereo not given), the IC50 in the test on MCF7 was 1.65 µM; in the test on HL-60 it was 0.6 µM; in the test with SW480, 3.09 µM; with SMMC-7721 it was 2.15 µM; in the test with A549, 3.86 µM.
In the case of `O=C(C[n+]1ccn(C(c2ccccc2)c2ccc3oc4ccccc4c3c2)c1)c1ccc(O)cc1` (stereo not given), the IC50 with MCF7 was determined as 7.05 µM; with HL-60, 2.61 µM; in the test with SW480, 15.2 µM; in the test with SMMC-7721, 6.28 µM; with A549, 6.8 µM.
The matching figures for `CC(c1ccc2oc3ccccc3c2c1)n1c[n+](CC(=O)c2ccc(F)cc2)c2ccccc21` (stereo not given): 3.85 µM, 1.67 µM, 9.77 µM, 6.31 µM and 13.7 µM.
Taken in the same sequence, the figures for `O=C(C[n+]1cn(C(c2ccccc2)c2ccc3oc4ccccc4c3c2)c2ccccc21)c1ccc(Br)cc1` (stereo not given) were 2.91 µM, 2.1 µM, 3.83 µM, 3.36 µM and 3.8 µM.
Turning to `Cc1n(C(c2ccccc2)c2ccc3oc4ccccc4c3c2)cc[n+]1CC(=O)c1ccc(O)cc1` (stereo not given), the IC50 in the test on MCF7 worked out at 11.8 µM; in the test on HL-60 it was 3.92 µM; in the test with SW480 it was 14.3 µM; in the test on SMMC-7721, 8.84 µM; in the test with A549, 26.2 µM.
The matching figures for `CC(c1ccc2oc3ccccc3c2c1)n1c[n+](CC(=O)c2ccccc2)c2ccccc21` (stereo not given): 12.5 µM, 2.46 µM, 14.6 µM, 8.51 µM and 18.1 µM.
As to `CC(c1ccc2oc3ccccc3c2c1)n1cc[n+](CC(=O)c2ccccc2)c1` (stereo not given), the IC50 in the test with MCF7 came to 14.1 µM; in the test with HL-60, 2.55 µM; with SW480 it was 14.4 µM; with SMMC-7721 it was 12.1 µM; in the test with A549 it was 27 µM.
With `Cc1n(C(C)c2ccc3oc4ccccc4c3c2)cc[n+]1Cc1ccc([N+](=O)[O-])cc1` (stereo not given), the IC50 was over 40 µM in the test on MCF7; 14.6 µM in the test with HL-60; over 40 µM with SW480; over 40 µM with SMMC-7721; over 40 µM with A549.
With `COc1ccc(C(=O)C[n+]2ccn(C(C)c3ccc4oc5ccccc5c4c3)c2C)cc1` (stereo not given), the half-inhibitory concentration (IC50) in the test with MCF7 worked out at 1.29 µM; in the test with HL-60, 0.7 µM; with SW480, 5.78 µM; with SMMC-7721, 1.43 µM; with A549, 3.02 µM.
Taken in the same sequence, the figures for `Cc1n(C(C)c2ccc3oc4ccccc4c3c2)cc[n+]1CC(=O)c1ccc(F)cc1` (stereo not given) were 16.2 µM, 2.96 µM, 12.3 µM, 4.7 µM and 15.4 µM.
Taken in the same sequence, the figures for `CC(c1ccc2oc3ccccc3c2c1)n1cc[n+](CC(=O)c2ccc(Br)cc2)c1` (stereo not given) were 4.08 µM, 2.95 µM, 6.85 µM, 11 µM and 13.7 µM.
The matching figures for `O=C(C[n+]1ccn(C(c2ccccc2)c2ccc3oc4ccccc4c3c2)c1)c1ccc2ccccc2c1` (stereo not given): 2.78 µM, 1.91 µM, 2.57 µM, 3.61 µM and 5.86 µM.
`COc1ccc(C(=O)C[n+]2cn(C(c3ccccc3)c3ccc4oc5ccccc5c4c3)c3ccccc32)cc1` (stereo not given): the IC50 in the test on MCF7 was 4.78 µM; in the test on HL-60, 0.64 µM; with SW480, 5.56 µM; in the test with SMMC-7721 it was 2.1 µM; with A549 it was 3.34 µM.
Take `CCCC[n+]1ccn(C(c2ccccc2)c2ccc3oc4ccccc4c3c2)c1C` (stereo not given): the IC50 in the test with MCF7 was 11.9 µM; in the test on HL-60, 3.81 µM; in the test on SW480, 28.4 µM; with SMMC-7721, 13.1 µM; with A549, 21.4 µM.
Taken in the same sequence, the figures for `Cc1n(C(C)c2ccc3oc4ccccc4c3c2)cc[n+]1CC(=O)c1ccc(Br)cc1` (stereo not given) were 6.77 µM, 2.67 µM, 11.8 µM, 6.4 µM and 12.8 µM.
The matching figures for `COc1ccc(C(=O)C[n+]2ccn(C(C)c3ccc4oc5ccccc5c4c3)c2)cc1` (stereo not given): 9.02 µM, 3.45 µM, 12.7 µM, 9.98 µM and 12.2 µM.
The matching figures for `COc1ccc(C(=O)C[n+]2cn(C(C)c3ccc4oc5ccccc5c4c3)c3ccccc32)cc1` (stereo not given): 3.42 µM, 2.05 µM, 3.18 µM, 2.95 µM and 5.95 µM.
On to `Cc1n(C(c2ccccc2)c2ccc3oc4ccccc4c3c2)cc[n+]1Cc1ccc([N+](=O)[O-])cc1` (stereo not given), for which the IC50 with MCF7 is 15.3 µM; in the test with HL-60, 8.74 µM; in the test with SW480 it was 18.2 µM; with SMMC-7721, 18.5 µM; in the test on A549, over 40 µM.
The matching figures for `O=C(C[n+]1ccn(C(c2ccccc2)c2ccc3oc4ccccc4c3c2)c1)c1ccc(F)cc1` (stereo not given): 4 µM, 3 µM, 5.16 µM, 14.5 µM and 10.2 µM.
The matching figures for `CCCC[n+]1ccn(C(c2ccccc2)c2ccc3oc4ccccc4c3c2)c1` (stereo not given): 6.03 µM, 1.1 µM, 13.1 µM, 8.13 µM and 11.4 µM.
Take `CC(c1ccc2oc3ccccc3c2c1)n1c[n+](CC(=O)c2ccc(O)cc2)c2ccccc21` (stereo not given): the IC50 is 14.2 µM in the test on MCF7; 2.35 µM in the test with HL-60; 16.3 µM in the test on SW480; 24.1 µM in the test on SMMC-7721; 20.1 µM with A549.
As for `CCCC[n+]1cn(C(c2ccccc2)c2ccc3oc4ccccc4c3c2)c2ccccc21` (stereo not given), the IC50 with MCF7 came to 3.37 µM; in the test on HL-60, 1.12 µM; with SW480 it was 8 µM; in the test on SMMC-7721, 2.93 µM; in the test with A549, 4.61 µM.
As for `O=C(C[n+]1cn(C(c2ccccc2)c2ccc3oc4ccccc4c3c2)c2ccccc21)c1ccc(O)cc1` (stereo not given), the IC50 in the test on MCF7 came to 9.15 µM; in the test with HL-60 it was 2.89 µM; in the test on SW480 it was 15.6 µM; in the test with SMMC-7721, 10.8 µM; in the test on A549, 17.7 µM.
`COc1ccc(C(=O)C[n+]2ccn(C(c3ccccc3)c3ccc4oc5ccccc5c4c3)c2C)cc1` (stereo not given): the IC50 was determined as 2.42 µM with MCF7; 0.59 µM with HL-60; 3.73 µM with SW480; 2.08 µM in the test with SMMC-7721; 1.9 µM in the test with A549.
Consider `Cc1n(C(c2ccccc2)c2ccc3oc4ccccc4c3c2)cc[n+]1CC(=O)c1ccc2ccccc2c1` (stereo not given), for which the IC50 came to 2.31 µM with MCF7; 0.98 µM with HL-60; 2.62 µM with SW480; 2.57 µM in the test on SMMC-7721; 3.78 µM with A549.
For the compound `CC(c1ccc2oc3ccccc3c2c1)n1c[n+](CC(=O)c2ccc3ccccc3c2)c2ccccc21` (stereo not given), the IC50 in the test on MCF7 was found to be 3.14 µM; with HL-60, 1.65 µM; in the test on SW480 it was 2.95 µM; with SMMC-7721, 2.24 µM; in the test with A549, 3.46 µM.
Taken in the same sequence, the figures for `Cc1nccn1C(C)c1ccc2oc3ccccc3c2c1` (stereo not given) were 18.7 µM, 10.9 µM, 21.4 µM, over 40 µM and 16.2 µM.
The matching figures for `Cc1n(C(C)c2ccc3oc4ccccc4c3c2)cc[n+]1CC(=O)c1ccc(O)cc1` (stereo not given): 26.4 µM, 12.2 µM, 37.5 µM, 13.3 µM and 28.6 µM.
Turning to `c1ccc(C(c2ccc3oc4ccccc4c3c2)n2ccnc2)cc1` (stereo not given), the IC50 in the test on MCF7 was over 40 µM; with HL-60, 21 µM; in the test with SW480, over 40 µM; with SMMC-7721 it was 33.7 µM; in the test with A549, 24.6 µM.
For `CC(c1ccc2oc3ccccc3c2c1)n1c[n+](C(C(=O)c2ccccc2)c2ccccc2)c2ccccc21` (stereo not given), the IC50 in the test on MCF7 turned out to be 9.35 µM; in the test with HL-60, 2.79 µM; with SW480, 10.5 µM; in the test on SMMC-7721, 5.4 µM; with A549, 12.7 µM.
Turning to `CCCC[n+]1cn(C(C)c2ccc3oc4ccccc4c3c2)c2ccccc21` (stereo not given), the IC50 worked out at 9.41 µM in the test on MCF7; 1.67 µM in the test with HL-60; 11.1 µM in the test with SW480; 3.78 µM in the test with SMMC-7721; 8.55 µM in the test with A549.
Regarding `O=C(C[n+]1ccn(C(c2ccccc2)c2ccc3oc4ccccc4c3c2)c1)c1ccccc1` (stereo not given), the IC50 in the test on MCF7 is 6.29 µM; in the test with HL-60, 2.14 µM; with SW480 it was 9.05 µM; with SMMC-7721, 11.4 µM; with A549, 17.7 µM.
Taken in the same sequence, the figures for `c1ccc(C(c2ccc3oc4ccccc4c3c2)n2cnc3ccccc32)cc1` (stereo not given) were 20.9 µM, 17.2 µM, over 40 µM, 25.4 µM and 23.4 µM.
The matching figures for `Cc1n(C(c2ccccc2)c2ccc3oc4ccccc4c3c2)cc[n+]1CC(=O)c1ccc(F)cc1` (stereo not given): 3.23 µM, 2.13 µM, 1.89 µM, 4.22 µM and 4.88 µM.
`CC(c1ccc2oc3ccccc3c2c1)n1ccnc1` (stereo not given): the IC50 with MCF7, in the test with HL-60, in the test with SW480, with SMMC-7721 and in the test on A549 was over 40 µM each time.
